Assay results as given in patent US10858362B2, “Imidazopyrazinones as PDE1 inhibitors” (H. Lundbeck A/S, priority 2015, dated 2020).
One block for each compound: values may come before it.

Key:
Assay type in all cases: biochemical
[1] = target: PDE1C (Homo sapiens (Human), UniProt Q14123); experiment: PDE1 inhibition assay, PDE1C; conditions: 15 nM tritium labelled cAMP
Experimental: (§1) Reactions were initiated by addition of the cyclic nucleotide substrate, and reactions were allowed to proceed for 1 h at room temperature before being terminated through mixing with 20 μL (0.2 mg) yttrium silicate SPA beads (PerkinElmer). The beads were allowed to settle for 1 h in the dark before the plates were counted in a Wallac 1450 Microbeta counter.

[2] = target: PDE1A (Homo sapiens (Human), UniProt P54750); experiment: PDE1 inhibition assay, PDE1A; conditions: for IC50: 15 nM tritium labelled cAMP
Experimental: Reactions were initiated by addition of the cyclic nucleotide substrate, and reactions were allowed to proceed for 1 h at room temperature before being terminated through mixing with 20 μL (0.2 mg) yttrium silicate SPA beads (PerkinElmer).

[3] = target: PDE9 (Homo sapiens (Human), UniProt O76083); experiment: PDE9 inhibition assay
In short: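 Human PDE9 in 50 mM HEPES pH 7.6, 10 mM MgCl2, 0.02% Tween20, enzyme set to convert 20-25% of 10 nM ^3H-cAMP substrate; inhibitors at varying amounts. 1 hr incubation, stopped with yttrium silicate SPA beads, settled 1 hr in dark, then scintillation counted.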

[4] = target: PDE1B (Homo sapiens (Human), UniProt Q01064); experiment: PDE1 inhibition assay, PDE1B; conditions: 15 nM tritium labelled cAMP
Experimental: as §1

PDE1A, sequence (P54750 whole entry): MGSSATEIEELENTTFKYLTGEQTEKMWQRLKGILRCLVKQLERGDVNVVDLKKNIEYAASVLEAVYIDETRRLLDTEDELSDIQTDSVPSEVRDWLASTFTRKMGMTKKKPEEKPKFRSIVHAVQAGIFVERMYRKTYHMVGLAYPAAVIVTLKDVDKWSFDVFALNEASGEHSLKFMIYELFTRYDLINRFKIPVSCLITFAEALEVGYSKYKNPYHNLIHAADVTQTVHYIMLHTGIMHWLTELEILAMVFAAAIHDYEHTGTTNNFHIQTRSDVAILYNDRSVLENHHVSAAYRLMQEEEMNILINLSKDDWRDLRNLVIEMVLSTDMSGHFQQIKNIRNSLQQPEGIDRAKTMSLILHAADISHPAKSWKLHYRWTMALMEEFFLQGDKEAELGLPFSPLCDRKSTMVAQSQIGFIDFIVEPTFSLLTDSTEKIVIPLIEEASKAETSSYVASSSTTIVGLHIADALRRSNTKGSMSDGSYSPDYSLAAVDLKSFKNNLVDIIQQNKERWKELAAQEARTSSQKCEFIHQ
PDE1B, sequence (Q01064 whole entry): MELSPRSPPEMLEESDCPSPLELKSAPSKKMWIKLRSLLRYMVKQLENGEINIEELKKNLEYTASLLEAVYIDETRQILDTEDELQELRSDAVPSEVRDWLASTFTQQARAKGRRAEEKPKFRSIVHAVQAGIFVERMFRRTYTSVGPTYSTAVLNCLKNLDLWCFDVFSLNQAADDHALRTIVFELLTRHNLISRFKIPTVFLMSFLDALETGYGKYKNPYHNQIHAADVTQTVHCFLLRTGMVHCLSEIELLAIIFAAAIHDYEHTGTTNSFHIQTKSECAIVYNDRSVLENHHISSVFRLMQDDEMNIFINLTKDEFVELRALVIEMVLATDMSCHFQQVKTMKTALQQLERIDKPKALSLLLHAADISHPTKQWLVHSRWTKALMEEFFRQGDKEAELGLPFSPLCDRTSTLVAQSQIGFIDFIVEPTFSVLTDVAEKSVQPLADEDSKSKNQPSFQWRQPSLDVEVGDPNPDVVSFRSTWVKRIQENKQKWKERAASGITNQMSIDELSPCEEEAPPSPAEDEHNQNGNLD
PDE1C, sequence (Q14123 whole entry): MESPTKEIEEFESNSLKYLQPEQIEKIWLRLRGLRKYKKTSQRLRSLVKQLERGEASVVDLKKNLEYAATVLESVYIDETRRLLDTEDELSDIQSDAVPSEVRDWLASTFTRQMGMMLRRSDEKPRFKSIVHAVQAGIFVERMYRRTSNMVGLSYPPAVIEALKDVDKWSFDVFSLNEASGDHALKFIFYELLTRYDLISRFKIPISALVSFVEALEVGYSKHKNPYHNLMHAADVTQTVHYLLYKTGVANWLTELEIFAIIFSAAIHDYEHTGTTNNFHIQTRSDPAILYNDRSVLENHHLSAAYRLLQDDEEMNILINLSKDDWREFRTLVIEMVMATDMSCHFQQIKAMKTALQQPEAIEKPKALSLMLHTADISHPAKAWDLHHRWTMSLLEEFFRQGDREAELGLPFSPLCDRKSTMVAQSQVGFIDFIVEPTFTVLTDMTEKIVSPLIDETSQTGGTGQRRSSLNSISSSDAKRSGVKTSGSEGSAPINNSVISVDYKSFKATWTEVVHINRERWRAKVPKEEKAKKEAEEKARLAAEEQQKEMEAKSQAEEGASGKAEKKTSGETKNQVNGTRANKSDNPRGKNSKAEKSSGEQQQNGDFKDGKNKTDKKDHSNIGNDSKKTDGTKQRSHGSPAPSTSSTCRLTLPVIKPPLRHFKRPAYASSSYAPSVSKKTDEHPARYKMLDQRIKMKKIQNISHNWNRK
PDE9, sequence (O76083 whole entry): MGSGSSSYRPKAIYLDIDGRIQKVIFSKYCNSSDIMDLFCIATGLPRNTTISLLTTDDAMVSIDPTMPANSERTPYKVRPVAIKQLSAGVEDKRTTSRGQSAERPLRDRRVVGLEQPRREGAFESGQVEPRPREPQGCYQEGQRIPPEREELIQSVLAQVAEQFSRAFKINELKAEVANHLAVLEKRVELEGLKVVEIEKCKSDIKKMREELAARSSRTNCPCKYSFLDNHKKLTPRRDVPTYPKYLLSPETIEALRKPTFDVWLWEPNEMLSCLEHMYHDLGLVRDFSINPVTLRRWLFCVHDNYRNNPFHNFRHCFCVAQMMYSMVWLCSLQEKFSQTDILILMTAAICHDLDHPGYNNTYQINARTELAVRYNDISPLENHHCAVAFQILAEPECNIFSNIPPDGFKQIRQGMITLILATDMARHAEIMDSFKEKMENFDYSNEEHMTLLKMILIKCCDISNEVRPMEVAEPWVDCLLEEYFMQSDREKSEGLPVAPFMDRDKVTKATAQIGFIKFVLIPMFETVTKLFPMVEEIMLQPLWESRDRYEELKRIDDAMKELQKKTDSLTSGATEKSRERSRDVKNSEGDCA

IC50 [1]: 548 nM
IC50 [2]: 484 nM
inhibition at 10 µM [3]: -32%
IC50 [4]: 308 nM
Structure (SMILES): COc1ccc(Cn2c(C)cn3c(C4CCNC(=O)CC4)ncc3c2=O)cc1 (centres unmarked) [Example 88, 7-(4-methoxybenzyl)-6-methyl-3-(7-oxoazepan-4-yl)imidazo[1,5-a]pyrazin-8(7H)-one]

IC50 [1]: 99 nM
IC50 [2]: 96 nM
inhibition at 10 µM [3]: 23%
IC50 [4]: 52 nM
Structure (SMILES): COc1ccc(Cn2c(C)cn3c(N4CCOCC4)ncc3c2=O)cc1 [Example 93, 3-(morpholino)-7-(4-methoxybenzyl)-6-methylimidazo[1,5-a]pyrazin-8(7H)-one]

Continued, compound first:

Structure (SMILES): Cc1cn2c(C3(C)CCOCC3)ncc2c(=O)n1Cc1cccc(F)c1 [Example 26, 7-(3-fluorobenzyl)-6-methyl-3-(4-methyltetrahydro-2H-pyran-4-yl)imidazo[1,5-a]pyrazin-8(7H)-one]
IC50 [1]: 47 nM
IC50 [2]: 234 nM
inhibition at 10 µM [3]: -2%
IC50 [4]: 218 nM

Structure (SMILES): Cc1cn2c(N3CCC4OCCC43)ncc2c(=O)n1Cc1cccc(F)c1 (single isomer, unassigned; isomer 2) [99, isomer 2]
IC50 [1]: 119 nM
PDE1A, % inhibition (at 10 μM) ([2]; at 10 μM): 47%
% inhibition of PDE9 at 10 microM ([3]; at 10 microM): 6%
IC50 [4]: 760 nM

Structure (SMILES): COC1(c2ncc3c(=O)n(Cc4cccc(F)c4)c(C)cn23)CCOCC1 [Example 28, 7-(3-fluorobenzyl)-3-(4-methoxytetrahydro-2H-pyran-4-yl)-6-methylimidazo[1,5-a]pyrazin-8(7H)-one]
IC50 [1]: 72 nM
IC50 [2]: 663 nM
inhibition at 10 µM [3]: 13%
IC50 [4]: 737 nM
